Experimental data taken from PubChem BioAssay AID1963861 (Molecular Pharmacology Branch, DTP, NCI, 2024).

System: 885724-159-R-J1-PDC KRAS PDC multicell spheroid viability
Test: Anticancer human tumor 885724-159-R-J1-PDC patient-derived pancreatic adenocarcinoma cell line growth inhibition [KRAS2]
Settings: for IC50: curve of first compound; for viability, T/C: stronger effect = lower value
In short: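 KRAS-mutant tumor cells were grown as spheroids with HUVEC endothelial cells and human MSCs as stroma. Targeted agents were tested alone and with KRAS pathway inhibitors. Doses started at or near clinical Cmax, or 10 microM, descending half-log.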

[1] = second compound 0.1 µM, first compound 0.0316 µM
[2] = second compound 0.1 µM, first compound 0.1 µM
[3] = second compound 0.1 µM, first compound 0.316 µM
[4] = second compound 0.1 µM, first compound 1 µM
[5] = second compound 0.316 µM, first compound 0.0316 µM
[6] = second compound 0.316 µM, first compound 0.1 µM
[7] = second compound 0.316 µM, first compound 0.316 µM
[8] = second compound 0.316 µM, first compound 1 µM
[9] = second compound 1 µM, first compound 0.0316 µM
[10] = second compound 1 µM, first compound 0.1 µM
[11] = second compound 1 µM, first compound 0.316 µM
[12] = second compound 1 µM, first compound 1 µM
[13] = second compound 3.16 µM, first compound 0.0316 µM
[14] = second compound 3.16 µM, first compound 0.1 µM
[15] = second compound 3.16 µM, first compound 0.316 µM
[16] = second compound 3.16 µM, first compound 1 µM
[17] = second compound 10 µM, first compound 0.0316 µM
[18] = second compound 10 µM, first compound 0.1 µM
[19] = second compound 10 µM, first compound 0.316 µM
[20] = second compound 10 µM, first compound 1 µM
[21] = second compound 0.1 µM, first compound 3.16 µM
[22] = second compound 0.1 µM, first compound 10 µM
[23] = second compound 0.316 µM, first compound 3.16 µM
[24] = second compound 0.316 µM, first compound 10 µM
[25] = second compound 1 µM, first compound 3.16 µM
[26] = second compound 1 µM, first compound 10 µM
[27] = second compound 3.16 µM, first compound 3.16 µM
[28] = second compound 3.16 µM, first compound 10 µM
[29] = second compound 10 µM, first compound 3.16 µM
[30] = second compound 10 µM, first compound 10 µM
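Also: spheroids exposed to agents for 7 days before readout.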

SMILES | IC50 (second compound 0.1 µM) [nM] | IC50 (second compound 0.316 µM) [nM] | IC50 (second compound 1 µM) [nM] | IC50 (second compound 3.16 µM) [nM] | IC50 (second compound 10 µM) [nM] | viability, T/C [1] [%] | viability, T/C [2] [%] | viability, T/C [3] [%] | viability, T/C [4] [%] | viability, T/C [5] [%] | viability, T/C [6] [%] | viability, T/C [7] [%] | viability, T/C [8] [%] | viability, T/C [9] [%] | viability, T/C [10] [%] | viability, T/C [11] [%] | viability, T/C [12] [%] | viability, T/C [13] [%] | viability, T/C [14] [%] | viability, T/C [15] [%] | also measured
CCN1CCN(Cc2ccc(Nc3ncc(F)c(-c4cc(F)c5nc(C)n(C(C)C)c5c4)n3)nc2)CC1 + C=CC(=O)N1CCN(c2nc(=O)n(-c3c(C)ccnc3C(C)C)c3nc(-c4c(O)cccc4F)c(F)cc23)C(C)C1 | > 1000 | > 1000 | > 1000 | > 1000 | > 1000 | 99.3 | 92.6 | 87.2 | 92.6 | 102 | 95.1 | 101 | 107 | 106 | 101 | 106 | 104 | 104 | 101 | 110 | viability, T/C (second compound 0.1 µM, first compound 0.00316 µM): 116%; viability, T/C (second compound 0.1 µM, first compound 0.01 µM): 98.6%; viability, T/C (second compound 0.316 µM, first compound 0.00316 µM): 114%; viability, T/C (second compound 0.316 µM, first compound 0.01 µM): 104%; viability, T/C (second compound 1 µM, first compound 0.00316 µM): 112%; viability, T/C (second compound 1 µM, first compound 0.01 µM): 116%; viability, T/C (second compound 3.16 µM, first compound 0.00316 µM): 114%; viability, T/C (second compound 3.16 µM, first compound 0.01 µM): 122%; viability, T/C [16]: 114%; viability, T/C (second compound 10 µM, first compound 0.00316 µM): 72.6%; viability, T/C (second compound 10 µM, first compound 0.01 µM): 84.2%; viability, T/C [17]: 84.8%; viability, T/C [18]: 85%; viability, T/C [19]: 88.8%; viability, T/C [20]: 80.2%
CC1(C)CCC(CN2CCN(c3ccc(C(=O)NS(=O)(=O)c4ccc(NCC5CCOCC5)c([N+](=O)[O-])c4)c(Oc4cnc5[nH]ccc5c4)c3)CC2)=C(c2ccc(Cl)cc2)C1 + CNCc1ccccc1-c1csc(C(C)Nc2nc(C)nc3cc(OC)c(OC)cc23)c1 | 6720 | 5820 | 5300 | < 31.6 | < 31.6 | 96.3 | 89.6 | 88.8 | 88.5 | 86.6 | 90.3 | 85.7 | 91 | 101 | 93.6 | 89.1 | 82.3 | 1.12 | 0.55 | 0.55 | viability, T/C [21]: 82.7%; viability, T/C [22]: 32.6%; viability, T/C [23]: 82.4%; viability, T/C [24]: 21%; viability, T/C [25]: 82.9%; viability, T/C [26]: 12.1%; viability, T/C [16]: 0.79%; viability, T/C [27]: 0.62%; viability, T/C [28]: 1.03%; viability, T/C [17]: 0.42%; viability, T/C [18]: 1.23%; viability, T/C [19]: 0.37%; viability, T/C [20]: 0.2%; viability, T/C [29]: 0.17%; viability, T/C [30]: 0.2%
CCNC(=O)CC1N=C(c2ccc(Cl)cc2)c2cc(OC)ccc2-n2c(C)nnc21 (stereo not given) + C=CC(=O)N1CCN(c2nc(=O)n(-c3c(C)ccnc3C(C)C)c3nc(-c4c(O)cccc4F)c(F)cc23)C(C)C1 | > 10000 | 6680 | > 10000 | 2220 | 352 | 109 | 95.6 | 86.3 | 65.6 | 105 | 94.4 | 77.6 | 61.3 | 116 | 89.6 | 66.3 | 63.9 | 105 | 90.5 | 66.3 | viability, T/C [21]: 57%; viability, T/C [22]: 52.7%; viability, T/C [23]: 55.3%; viability, T/C [24]: 47.2%; viability, T/C [25]: 51.1%; viability, T/C [26]: 51.8%; viability, T/C [16]: 51.8%; viability, T/C [27]: 51.8%; viability, T/C [28]: 45.9%; viability, T/C [17]: 78%; viability, T/C [18]: 66%; viability, T/C [19]: 48.2%; viability, T/C [20]: 43.1%; viability, T/C [29]: 39.2%; viability, T/C [30]: 33.6%
